Patent publication US10227331B2 (priority 2015, dated 2019)
pIC50: −log10 of the molar value.

Key:
NDM-1 = NDM-1 (Klebsiella pneumoniae, UniProt C7C422); test: biochemical; format: biochemical; conditions: CCF2-FA substrate, 2 hours at 25° C; read-out: NDM-1 IC50
Method: (§1) Enzyme Activity: Determination of IC50
(§2) The Class B enzyme activities were measured in the presence of the test inhibitor in a fluorescence assay against a commercially available substrate consisting of a cephalosporin core linking 7-hydroxycoumarin to fluorescein (CCF2-FA). […] In a 384-well microplate, the test inhibitor was incubated with the metallo-β-lactamase enzyme and the substrate for 2 hours at 25° C. […] The IC50 value was determined from semi-logarithmic plots of enzyme inhibition versus inhibitor concentration, with a curve generated using a 4-parameter fit.

IMP-1 = IMP-1 (Serratia marcescens, UniProt P52699); test: biochemical; format: biochemical; conditions: CCF2-FA substrate, 2 hours at 25° C; read-out: IMP-1 IC50
IMP-1, sequence (P52699 whole entry, looked up, species assumed): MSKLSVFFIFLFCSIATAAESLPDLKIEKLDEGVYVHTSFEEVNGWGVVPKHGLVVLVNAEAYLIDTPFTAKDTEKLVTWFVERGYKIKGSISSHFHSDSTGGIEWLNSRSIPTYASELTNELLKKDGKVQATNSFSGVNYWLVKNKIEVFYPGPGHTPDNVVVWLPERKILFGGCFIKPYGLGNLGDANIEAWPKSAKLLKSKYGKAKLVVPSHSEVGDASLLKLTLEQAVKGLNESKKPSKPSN
Method: as §1, §2

[1] = tested on: P. aeruginosa expressing IMP-1, efflux+ (MB9798); format: cell-based, Pseudomonas aeruginosa; conditions: for P. aeruginosa expressing IMP-1, efflux+ (MB9798) MITC95: imipenem at 2 μg/mL, in the presence of a class A, C, D serine β-lactamase inhibitor closely related to relebactam; for Efflux ratio: ratio MITC95 PA_9798/MITC95 PA_9799
Source text: (§3) The strain background is Pseudomonas aeruginosa PAO1.

[2] = tested on: Serratia marcescens expressing IMP-1 (CL5741); format: cell-based; conditions: with imipenem 1 μg/ml, 95% inhibition of bacterial growth; for Serratia marcescens MITC95: IMP-1 (CL5741)
Method: (§4) Antibiotic Potentiation Activity: Determination of Synergistic Concentration
(§5) The bacterial strains tested included the clinical strains Escherichia coli expressing NDM-1 (CLB30005, CLB30016), Serratia marcescens expressing IMP-1 (CL5741), and Klebsiella pneumoniae expressing VIM-1 (IHMA599644). Inhibitor activity was measured in the presence and absence of imipenem in a 384-well microplate.
(§6) The clinical strains CLB30016, CL5741 and IHMA599644 were grown on trypticase soy agar containing 5% sheep's blood. The bacteria on agar plates were incubated at 35° C. with humidity overnight. The following day, individual colonies from each clinical strain were picked and resuspended in 5 ml saline to attain an OD600 of […], for CLB30016, CL5741 and IHMA599644, respectively. These were further diluted 1:100 into 1.1×CAMHB and used to inoculate the test wells as described below.
(§7) Imipenem in 10 mM 3-(N-morpholino)propanesulfonic acid (MOPS, pH 7) was stored in single use aliquots at −80° C. […] On the day of the assay, 4 μl of antibiotic was added to 45 ul of bacteria followed by 1 μl of test compound and mixed by pipetting and with an orbital shaker. The concentration of antibiotic used in the assay was 1 μg/ml. Microplates were covered and incubated at 35° C. for 22 hours to 24 hours. At the end of the incubation, absorbance was determined using a spectrophotometer.
(§8) For example, in general, the compounds of Examples 1-379 were determined to restore susceptibility to imipenem for one or more of the test organisms at concentrations of 100 μM or less.

[3] = tested on: Escherichia coli expressing NDM-1 (CLB30005, CLB30016); format: cell-based; conditions: with imipenem 1 μg/ml, 95% inhibition of bacterial growth; for Escherichia coli MITC95: NDM-1 (CLB30016)
Method: as §4, §5, §6, §7, §8

[4] = tested on: Klebsiella pneumoniae expressing VIM-1 (IHMA599644); format: cell-based; conditions: with imipenem 1 μg/ml, 95% inhibition of bacterial growth; for Klebsiella pneumoniae MITC95: VIM-1 (IHMA599644)
Method: as §4, §5, §6, §7, §8

VIM-1 = VIM-1 (Pseudomonas aeruginosa (strain ATCC 15692 / DSM 22644 / CIP 104116 / JCM 14847 / LMG 12228 / 1C / PRS 101 / PAO1), UniProt A0A0F7KYQ8); test: biochemical; conditions: CCF2-FA substrate, 2 hours at 25° C
Method: as §1, §2

[5] = tested on: P. aeruginosa expressing IMP-1, efflux− (MB9799); test: Efflux: concentration of MBL inhibitor which restores susceptibility to imipenem; format: cell-based, Pseudomonas aeruginosa; conditions: imipenem at 2 μg/mL, in the presence of a class A, C, D serine β-lactamase inhibitor closely related to relebactam
Source text: as §3

NDM-1, sequence (C7C422 whole entry, looked up, species assumed): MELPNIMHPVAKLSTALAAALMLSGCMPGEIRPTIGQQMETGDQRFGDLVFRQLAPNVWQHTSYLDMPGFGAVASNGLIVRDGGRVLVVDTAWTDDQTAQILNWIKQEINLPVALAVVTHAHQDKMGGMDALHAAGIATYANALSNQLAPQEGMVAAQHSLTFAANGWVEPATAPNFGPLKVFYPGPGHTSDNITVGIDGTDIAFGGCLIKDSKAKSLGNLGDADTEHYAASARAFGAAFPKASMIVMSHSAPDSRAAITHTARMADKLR

SMILES | pIC50 (NDM-1) | pIC50 (IMP-1) | P. aeruginosa expressing IMP-1, efflux+ (MB9798) MITC95 [1] | Efflux ratio [1] | Serratia marcescens expressing IMP-1 (CL5741) MITC95 [2] | Escherichia coli expressing NDM-1 (CLB30016) MITC95 [3] | Klebsiella pneumoniae expressing VIM-1 (IHMA599644) MITC95 [4] | pIC50 (VIM-1) | P. aeruginosa expressing IMP-1, efflux− (MB9799) MITC95 [5] | Serratia marcescens MITC95 [2] | Escherichia coli MITC95 [3] | Klebsiella pneumoniae MITC95 [4]
Nc1nc2cc(-c3ccc(SC4CNC4)c(S(N)(=O)=O)c3-c3nn[nH]n3)ccc2[nH]1 [Example 1, 3-(2-amino-1H-benzo[d]imidazol-5-yl)-6-(azetidin-3-ylthio)-2-(2H-tetrazol-5-yl)benzenesulfonamide] | 7.68 | 6.37 | 50 µM | 8.00 | 6.25 µM | 0.3906 µM | 6.25 µM | 6.85 | 6.25 µM |  |  | 
Nc1nc2c(-c3ccc(SC4CNC4)c(S(N)(=O)=O)c3-c3nn[nH]n3)cccc2[nH]1 [Example 2, 3-(2-amino-1H-benzo[d]imidazol-4-yl)-6-(azetidin-3-ylthio)-2-(2H-tetrazol-5-yl)benzenesulfonamide] | 8.65 | 7.12 | 6.25 µM | 4.88 | 1.781 µM | 0.5 µM | 6.25 µM | 7.13 | 1.281 µM |  |  | 
Nc1nc2cccc(-c3ccc(SC4CCNCC4)c(S(N)(=O)=O)c3-c3nn[nH]n3)c2[nH]1 [Example 3, 3-(2-amino-3H-benzo[d]imidazol-4-yl)-6-(piperidin-4-ylthio)-2-(2H-tetrazol-5-yl)benzenesulfonamide] | 8.49 | 6.96 | 25 µM | 9.75 | 6.25 µM | 0.125 µM | 25 µM | 7.10 | 2.563 µM |  |  | 
NS(=O)(=O)c1c(SC2CNC2)ccc(-c2ccc(C3CCNCC3)cc2)c1-c1nn[nH]n1 [Example 4, 4-(Azetidin-3-ylthio)-4′-(piperidin-4-yl)-2-(2H-tetrazol-5-yl)-[1,1′-biphenyl]-3-sulfonamide] | 7.94 | 7.82 | 1.563 µM | 4.00 | 1.563 µM | 0.7813 µM | 3.125 µM | 7.27 | 0.3906 µM |  |  | 
NS(=O)(=O)c1c([S+]([O-])C2CNC2)ccc(-c2ccc(C3CCNCC3)cc2)c1-c1nn[nH]n1 (stereo not shown) [Example 5, 4-(Azetidin-3-ylsulfinyl)-4′-(piperidin-4-yl)-2-(2H-tetrazol-5-yl)-[1,1′-biphenyl]-3-sulfonamide] | 8.70 | 8.16 | 3.125 µM | 2.00 | 3.125 µM | 3.125 µM | 3.125 µM | 8.69 | 1.563 µM |  |  | 
NS(=O)(=O)c1c(S(=O)(=O)C2CNC2)ccc(-c2ccc(C3CCNCC3)cc2)c1-c1nn[nH]n1 [Example 6] | 9.51 | 9.67 | 0.7813 µM | 1.00 | 1.563 µM | 0.7813 µM | 1.563 µM | 9.71 | 0.7813 µM |  |  | 
NS(=O)(=O)c1c(SC2CNC2)ccc(-c2cnc3ccccn23)c1-c1nn[nH]n1 [Example 7, 6-(azetidin-3-ylthio)-3-(imidazo[1,2-a]pyridin-3-yl)-2-(2H-tetrazol-5-yl)benzenesulfonamide] | 8.12 | 7.30 | 25 µM | 8.00 | 3.125 µM | 0.3906 µM | 6.25 µM | 7.59 | 3.125 µM |  |  | 
NS(=O)(=O)c1c([S+]([O-])C2CNC2)ccc(-c2cnc3ccccn23)c1-c1nn[nH]n1 (stereo not shown) [Example 8, 6-(azetidin-3-ylsulfinyl)-3-(imidazo[1,2-a]pyridin-3-yl)-2-(2H-tetrazol-5-yl)benzenesulfonamide] | 8.58 | 7.42 | 50 µM | 8.00 | 12.5 µM | 3.125 µM | 12.5 µM | 8.16 | 6.25 µM |  |  | 
NC(=O)N1CC(S(=O)(=O)c2ccc(-c3ccc(NS(=O)(=O)C4CC4)cc3)c(-c3nn[nH]n3)c2S(N)(=O)=O)C1 [Example 246, 3-((4′-(cyclopropanesulfonamido)-3-sulfamoyl-2-(2H-tetrazol-5-yl)-[1,1′-biphenyl]-4-yl)sulfonyl)azetidine-1-carboxamide] |  | 9.99 | 12.5 µM |  |  |  |  | 9.86 | 3.125 µM | 12.5 µM | 50 µM | 25 µM
NC[C@H](O)CS(=O)(=O)c1ccc(-c2cccc3sc(N)nc23)c(-c2nn[nH]n2)c1S(N)(=O)=O [Example 281, 6-((S)-3-amino-2-hydroxypropylsulfonyl)-3-(2-aminobenzo[d]thiazol-4-yl)-2-(2H-tetrazol-5-yl)benzenesulfonamide] | 10.25 |  | 0.3906 µM |  |  |  |  | 9.87 | 0.7813 µM | 0.7813 µM | 0.7813 µM | 1.563 µM
NC[C@@H](O)CS(=O)(=O)c1ccc(-c2cccnc2N)c(-c2nn[nH]n2)c1S(N)(=O)=O [Example 367, (R)-6-((3-amino-2-hydroxypropyl)sulfonyl)-3-(2-aminopyridin-3-yl)-2-(2H-tetrazol-5-yl) benzenesulfonamide] |  |  | 1.563 µM | 1.00 |  |  |  | 9.15 | 1.563 µM | 0.7813 µM | 0.1953 µM | 1.563 µM
NC[C@H](O)CS(=O)(=O)c1ccc(-c2cccnc2N)c(-c2nn[nH]n2)c1S(N)(=O)=O [Example 368, (S)-6-((3-amino-2-hydroxypropyl)sulfonyl)-3-(2-aminopyridin-3-yl)-2-(2H-tetrazol-5-yl) benzenesulfonamide] |  |  | 1.563 µM | 1.33 |  |  |  | 9.25 | 1.172 µM | 0.7813 µM | 0.1953 µM | 2.344 µM
